# pIC50: −log10 of the molar value.
# Legend:
# cyclooxygenase [1] = molecular target: T1, cyclooxygenase (Mus musculus, UniProt Q05769); assay: In vitro effect on prostaglandin (6 keto PGF1α) production induced by LPS+IFNγ on J774A1 monocyte/macrophage cell line; type: cell-based, murine; details: for effect on release of 6 keto PGF1α: LPS+IFNγ, J774A1 culture media
# T1 construct: main cyclooxygenase products produced by J774A1 cell line; endogenous in cells
# T1 sequence (Q05769 18-604): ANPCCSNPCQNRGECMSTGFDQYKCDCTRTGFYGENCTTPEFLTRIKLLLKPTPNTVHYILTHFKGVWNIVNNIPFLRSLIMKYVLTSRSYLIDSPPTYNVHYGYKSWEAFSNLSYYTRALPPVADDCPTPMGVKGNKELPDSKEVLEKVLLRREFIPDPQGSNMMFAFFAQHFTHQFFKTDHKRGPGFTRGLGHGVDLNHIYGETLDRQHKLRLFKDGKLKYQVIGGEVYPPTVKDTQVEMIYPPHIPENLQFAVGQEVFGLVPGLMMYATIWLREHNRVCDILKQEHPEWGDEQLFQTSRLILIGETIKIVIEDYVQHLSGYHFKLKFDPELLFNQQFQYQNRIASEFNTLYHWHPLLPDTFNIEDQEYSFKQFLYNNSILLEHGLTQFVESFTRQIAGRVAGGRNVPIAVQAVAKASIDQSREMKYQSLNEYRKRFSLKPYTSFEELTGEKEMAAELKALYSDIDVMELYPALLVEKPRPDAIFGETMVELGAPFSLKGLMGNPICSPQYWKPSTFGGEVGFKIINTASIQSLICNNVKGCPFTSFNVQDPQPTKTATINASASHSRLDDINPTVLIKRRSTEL
# Description: 6-In vitro effect on prostaglandin production induced by LPS+IFNγ on J774A1 monocyte/macrophage cell line:
# Levels of one of the main cyclooxygenase products produced by J774A1 cell line (i.e.: 6 keto PGF1α) the stable metabolite of PGI2 were assessed in the culture media by a specific radioimmunoassay (NEN, Kit NEK 025).
# [2] = test system: neuronal death after focal cerebral ischemia; assay: In vivo effect on neuronal death after focal cerebral ischemia in mice; details: 3 mg/kg ip, 5 hours after middle cerebral artery occlusion; mean of six animals
# Description: 9-In vivo effect on neuronal death after focal cerebral ischemia in mice:
# Systemic intraperitoneal (ip) administration of the compounds was carried out 5 hours after cortical infarction induced by the occlusion of the middle cerebral artery in male Swiss mice (20-22 g), according to Duverger et al.--Pharmacology of cerebral ischemia in Krieglstein and Oberpichler, Wissenschaftliche Verlagsgesellschaft, Stuttgart, 1990, 409-413. Four days later, the mice were decapitated and their brains removed and frozen to be then sectioned in coronal slices of […] thickness. Area infarction was measured by image analysis. Reduction of infarcted volume was measured and compared with non treated animal. The percentage indicated the mean reduction of infarct from six animals per group--MK 801, a NMDA antagonist was used as a control substance.
# [3] = test system: J774 A1 monocyte/macrophage cell line; assay: In vitro effect on nitrite production induced by LPS+INFγ on J774 A1 monocyte/macrophage cell line; type: cell-based, murine
# Description: 5-In vitro effect on nitrite production induced by LPS+INFγ on J774 A1 monocyte/macrophage cell line:
# Macrophage type cells like J774 A1 cell line are interesting to use since they are important cells in inflammation and express large amount of NO (due to the induction of NO synthase) and cyclooxygenase products. They are activated with lipopolysaccharide (LPS) in presence of interferon γ (INFγ). This assay was used to compare the effects of compounds of the invention with the association of their separated parent compounds.
# Murine monocyte/macrophage cells were grown in Dubecco's modified Eagle's medium at 37° C. The cells were plated in 24 well culture plate (NUNC) and were used for experiments at about 2×10^5 cells/plate. The cells were activated with LPS (1 μg/ml) from E. Coli (SO55:B5) and murine recombinant IFNγ (50 U/ml) and then incubated in the presence or absence of the compounds. After 48 h nitrite (NO2 -) levels, which correlate with the activation of NO synthase, were assessed in the culture media by the colorimetric method according to Green et al (L. Green, D. Wagner, J. Glogowski, P. Skipper, J. Wishwok and S. Tannenbaum, Analysis of nitrate, nitrite and [15N] nitrate in biological fluids. Analytical Biochemistry 126, 131-138, 1982).
# [4] = test system: vascular reactivity to methoxamine; assay: In vivo effect on endotoxin treated pithed rat; details: endotoxin 300 μg/kg/h, control 79 ± 9, EDTX 278 ± 34
# Description: 10-In vivo effect on endotoxin treated pithed rat:
# As previously reported, the association of an inhibitor of NO synthase and an inhibitor of cyclooxygenase has a synergistic effect to restore the blood pressure and vascular reactivity in an endotoxinic or septic animal.
# Male Sprague Dawley rats (body weight 280-320 g) were pithed. One hour after pithing, animals were given endotoxin (EDTX, Escherichia Coli, lipopolysaccharide, O III, B4 =300 μg/kg/h) for 60 minutes. […]
# cyclooxygenase [5] = molecular target: T2, cyclooxygenase (Oryctolagus cuniculus, UniProt O97554); assay: In vitro effect on arachidonic acid induced aggregation of washed rabbit platelets; type: cell-based; details: arachidonic acid 0.5 mM, read-out: IC50 (arachidonic acid induced platelet aggregation)
# T2 construct: arachidonic acid induced aggregation of washed rabbit platelets; endogenous in cells; host or cells: washed platelets of male New Zealand rabbits
# T2 sequence (O97554 31-606): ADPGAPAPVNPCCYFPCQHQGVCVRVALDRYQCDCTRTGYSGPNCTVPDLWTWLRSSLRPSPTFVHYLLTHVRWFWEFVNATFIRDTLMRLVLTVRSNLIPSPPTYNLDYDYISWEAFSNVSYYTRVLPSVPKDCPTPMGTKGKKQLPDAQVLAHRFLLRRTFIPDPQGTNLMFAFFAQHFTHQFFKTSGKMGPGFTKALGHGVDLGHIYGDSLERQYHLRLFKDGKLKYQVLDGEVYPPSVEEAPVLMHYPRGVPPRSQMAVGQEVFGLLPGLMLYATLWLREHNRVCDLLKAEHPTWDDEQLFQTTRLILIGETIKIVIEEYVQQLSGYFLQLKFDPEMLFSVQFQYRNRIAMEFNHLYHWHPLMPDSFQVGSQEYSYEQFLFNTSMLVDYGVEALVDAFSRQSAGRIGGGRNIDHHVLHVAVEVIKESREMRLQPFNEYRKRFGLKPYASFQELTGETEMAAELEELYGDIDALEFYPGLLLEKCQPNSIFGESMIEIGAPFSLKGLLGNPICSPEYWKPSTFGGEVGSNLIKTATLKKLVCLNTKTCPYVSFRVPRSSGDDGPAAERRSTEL
# Description: This protocol was used to assay the effect of the compounds on the cyclooxygenase. […] Blood was taken from the auricular artery of male New Zealand rabbit (2.5 kg mean body weight) on ACD (citric acid/sodium citrate/dextrose) as anticoagulant. The washed platelets were prepared and then transferred in the cuvet of the aggregometer (Chronolog aggregometer Coultronics).
# constitutive NO synthase = molecular target: T3, constitutive NO synthase (Rattus norvegicus, UniProt Q62600); assay: In vitro effect on constitutive NO synthase in the isolated rat aorta; type: cell-based; details: isolated rat aorta with endothelium; reversal of carbachol relaxation; PE 1 μM; read-out: Test on constitutive NO synthase IC50
# T3 construct: Preparations of isolated rat aorta with endothelium; from tissue; host or cells: isolated thoracic aorta rings with endothelium, Sprague Dawley rat
# T3 sequence (Q62600 2-1202 limits assumed): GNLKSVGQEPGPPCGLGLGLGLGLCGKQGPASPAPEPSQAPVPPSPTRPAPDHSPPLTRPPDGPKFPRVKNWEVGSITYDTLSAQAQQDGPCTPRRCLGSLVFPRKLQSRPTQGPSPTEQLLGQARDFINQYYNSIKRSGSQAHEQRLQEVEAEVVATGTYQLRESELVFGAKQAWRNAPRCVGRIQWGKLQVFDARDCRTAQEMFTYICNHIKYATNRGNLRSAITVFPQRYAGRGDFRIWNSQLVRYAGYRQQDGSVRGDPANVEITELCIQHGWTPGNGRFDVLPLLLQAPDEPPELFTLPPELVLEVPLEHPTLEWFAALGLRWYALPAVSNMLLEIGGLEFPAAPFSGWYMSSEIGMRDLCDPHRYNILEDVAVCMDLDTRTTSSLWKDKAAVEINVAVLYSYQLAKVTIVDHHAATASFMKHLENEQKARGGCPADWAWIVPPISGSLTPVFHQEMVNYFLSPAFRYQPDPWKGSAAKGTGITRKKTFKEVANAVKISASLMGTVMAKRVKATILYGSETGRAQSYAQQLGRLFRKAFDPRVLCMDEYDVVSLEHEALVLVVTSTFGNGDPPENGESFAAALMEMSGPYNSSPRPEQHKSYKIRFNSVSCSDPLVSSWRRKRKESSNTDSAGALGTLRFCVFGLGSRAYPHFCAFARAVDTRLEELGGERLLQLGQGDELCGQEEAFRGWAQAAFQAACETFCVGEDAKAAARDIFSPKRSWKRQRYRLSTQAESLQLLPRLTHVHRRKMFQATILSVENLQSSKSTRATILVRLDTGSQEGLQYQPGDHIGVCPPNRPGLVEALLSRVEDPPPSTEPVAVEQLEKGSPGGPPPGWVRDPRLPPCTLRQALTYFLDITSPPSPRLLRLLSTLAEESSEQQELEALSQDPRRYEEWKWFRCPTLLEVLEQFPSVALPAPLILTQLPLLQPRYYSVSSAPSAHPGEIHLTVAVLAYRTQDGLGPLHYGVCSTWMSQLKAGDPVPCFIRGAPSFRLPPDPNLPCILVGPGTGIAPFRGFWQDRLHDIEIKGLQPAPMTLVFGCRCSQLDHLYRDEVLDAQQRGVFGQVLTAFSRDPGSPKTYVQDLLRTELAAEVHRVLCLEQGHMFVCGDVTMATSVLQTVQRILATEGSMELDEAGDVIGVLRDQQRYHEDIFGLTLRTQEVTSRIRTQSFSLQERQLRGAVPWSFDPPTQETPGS
# Description: 1-In vitro effect on constitutive NO synthase in the isolated rat aorta;
# Preparations of isolated rat aorta with endothelium were prepared as previously described (M. Auguet, S. Delaflotte, P. E. Chabrier and P. Braquet--Comparative effects of endothelium and phorbol 12-13 dibutyrate in rat aorta, Life Sciences, 1989, 45, 2051-2059).
# Male Sprague Dawley rats (270-360 g, Charles River, Paris) were sacrificed by cervical dislocation and the thoracic aorta removed and cleaned of the surrounding tissue. Rings 2 mm wide were suspended in organ baths containing 10 ml of physiological solution (for composition, see below) under a tension of 2 g at 37° C. and gassed with O2 /CO2 (95%/5%). Contractile responses were measured, using force displacement transducers (Slatham UC2) coupled to a Gould 8000 S polygraph. An equilibration period of one hour was allowed before experimentation. Normal physiological solution was composed of (mM): NaCl, 118; KCl, 4.7; CaCl2, 2.5; KH2 PO4, 1.2; MgSO4, 0.6; NaHCO3, 25; glucose, 11. After equilibration in normal medium, the preparation was subjected to a near maximal dose (about 95%) of phenylephrine (PE, 1 μM). When the contraction was stable, carbachol (10 μM) was tested in order to evaluate the presence or absence of endothelium. […]
# inducible NO synthase = molecular target: T4, inducible NO synthase (Rattus norvegicus, UniProt Q06518); assay: In vitro effect on inducible NO synthase in the isolated rat aorta from endotoxin-shocked animal; type: cell-based; details: aorta from endotoxin-treated rats, endothelium disrupted; PE 1 μM; read-out: Test on inducible NO synthase IC50
# T4 construct: the compounds were tested on isolated rat aorta from shocked animal; from tissue; host or cells: thoracic aorta rings, endothelium removed, from endotoxin-treated Sprague Dawley rats
compound,measurement,setting,value
COC(=O)C(CCCNC(=N)N[N+](=O)[O-])NC(=O)CC1=C(C)C(=Cc2ccc([S+](C)[O-])cc2)c2ccc(F)cc21 (stereo not shown) [Example 17],inhibition at 100 µM,"cyclooxygenase [1]; J774.A1, 10^-4 M, LPS+INF, J774A1, read-out: % OF INHIBITION of 6-keto PG F1 production",92%
same,inhibition at 10 µM,"cyclooxygenase [1]; J774.A1, 10^-5 M, LPS+INF, J774A1, read-out: % OF INHIBITION of 6-keto PG F1 production",83%
same,inhibition at 1 µM,"cyclooxygenase [1]; J774.A1, 10^-6 M, LPS+INF, J774A1, read-out: % OF INHIBITION of 6-keto PG F1 production",74%
same,Reduction of infarct,[2],-69%
same,inhibition at 100 µM,"[3]; Mus musculus, J774.A1, 10^-4 M, LPS+INF, J774",73%
same,inhibition at 10 µM,"[3]; Mus musculus, J774.A1, 10^-5 M, LPS+INF, J774",57%
same,inhibition at 1 µM,"[3]; Mus musculus, J774.A1, 10^-6 M, LPS+INF, J774",49%
"CC(=O)Oc1ccccc1C(=O)O [aspirin, acetylsalicylic acid, reference compound]",vascular reactivity to methoxamine DE50,[4]; dose 150 mg/kg/h,136 ± 29 µg/kg
same,effect on release of 6 keto PGF1α,cyclooxygenase [1],abolished in a dose dependent manner
same,pIC50,cyclooxygenase [5],3.70
CNC(=N)NCCC[C@H](N)C(=O)O.O=C(O)c1ccccc1O [Example 2],vascular reactivity to methoxamine DE50,[4]; dose 30 mg/kg/h,98 ± 35 µg/kg
same,Reduction of infarct,[2],-55%
same,% OF INHIBITION of nitrite production,"[3]; 10^-4 M, LPS+INF, J774",75.5%
same,% OF INHIBITION of nitrite production,"[3]; 10^-5 M, LPS+INF, J774",61%
same,% OF INHIBITION of nitrite production,"[3]; 10^-6 M, LPS+INF, J774",53%
"NC(=N[N+](=O)[O-])NCCC[C@H](N)C(=O)O [L-NO, N-ω-nitro-L-Arginine, reference compound]",effect on release of 6 keto PGF1α,cyclooxygenase [1],not affected
same,pIC50,"[3]; Mus musculus, J774.A1, activated cells, LPS 1 μg/ml + IFNγ 50 U/ml, 48 h",4.82
"COC(=O)[C@@H](N)CCCNC(N)=N[N+](=O)[O-] [L-NAME, N-ω-nitro-L-Arginine methyl ester, reference compound]",effect on release of 6 keto PGF1α,cyclooxygenase [1],not affected
COC(=O)[C@H](CCCNC(N)=N[N+](=O)[O-])NC(=O)c1ccccc1OC(C)=O [Example 16],pIC50,constitutive NO synthase,5.05
same,pIC50,inducible NO synthase,5.40
CNC(=N)NCCCC(N)C(=O)O.Cc1cccc(Nc2ccccc2C(=O)O)c1C [Example 12],pIC50,constitutive NO synthase,5.00
"C[C@]12N[C@H](Cc3ccccc31)c1ccccc12 [MK 801, reference compound]",Reduction of infarct,[2],-51%
CC1=C(CC(=O)O)c2cc(F)ccc2/C1=C\c1ccc([S+](C)[O-])cc1.N=C(NCCC[C@H](N)C(=O)O)N[N+](=O)[O-] (stereo not shown) [Example 13],% OF INHIBITION of nitrite production,"[3]; 10^-4 M, LPS+INF, J774",71%
same,% OF INHIBITION of nitrite production,"[3]; 10^-5 M, LPS+INF, J774",63%
same,% OF INHIBITION of nitrite production,"[3]; 10^-6 M, LPS+INF, J774",56%

# Reference: patent publication US5360925A, “Dual inhibitors of no synthase and cyclooxygenase, process for their preparation and therapeutical compositions containing them” (priority 1992, dated 1994)
